Source: article PMC11508620, “Assessing the Potential of 1,2,3-Triazole-Dihydropyrimidinone Hybrids Against Cholinesterases: In Silico, In Vitro, and In Vivo Studies” (International Journal of Molecular Sciences, 2024)
Like-named read-outs stand apart in the source and are kept apart here.

Experiments:
[1] = target: equine serum BuChE (eqBuChE) (Equus caballus, UniProt P81908); assay: biochemical; assay type: biochemical; conditions: for IC50: [S] = 112 µM, 0.1 M phosphate buffer pH 8.0, 25 °C, mean ± SD; for Ki: eqBuChE
Chain of equine serum BuChE (eqBuChE) (P81908 whole entry): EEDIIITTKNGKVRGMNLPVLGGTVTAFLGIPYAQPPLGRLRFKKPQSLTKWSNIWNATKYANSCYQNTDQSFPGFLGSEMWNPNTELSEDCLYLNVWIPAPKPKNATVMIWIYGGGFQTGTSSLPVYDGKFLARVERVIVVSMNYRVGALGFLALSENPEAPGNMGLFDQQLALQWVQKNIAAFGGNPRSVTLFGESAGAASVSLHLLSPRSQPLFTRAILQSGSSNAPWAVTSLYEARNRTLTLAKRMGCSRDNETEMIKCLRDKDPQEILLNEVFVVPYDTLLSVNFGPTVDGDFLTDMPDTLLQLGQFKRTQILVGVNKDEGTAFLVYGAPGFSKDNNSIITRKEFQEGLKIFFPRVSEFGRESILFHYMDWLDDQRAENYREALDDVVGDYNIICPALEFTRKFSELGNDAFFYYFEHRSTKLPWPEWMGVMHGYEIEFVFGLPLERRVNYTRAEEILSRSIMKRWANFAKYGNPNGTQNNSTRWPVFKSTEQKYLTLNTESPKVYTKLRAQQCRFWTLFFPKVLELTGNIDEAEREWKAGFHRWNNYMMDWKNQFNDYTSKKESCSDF

eqBuChE [2] = target: T1, eqBuChE (Equus caballus, UniProt P81908); assay: STD-NMR study with eqBuChE; assay type: binding, equine; conditions: hybrid 2.5 mM, eqBuChE 2.5 μM
T1 construct: purified enzymes of animal origin, namely electrophorus electricus AChE (eeAChE) and equine serum BuChE (eqBuChE); purchased Sigma–Aldrich; host or cells: equine serum
T1 sequence (P81908 whole entry): as above
Experimental: STD-NMR is a very useful validation technique for docking studies, which we have used previously with success.
The NMR spectroscopy experiments were performed on a Bruker Avance III 400 MHz spectrometer equipped with a 5 mm broadband (PABBO BB/19F-1H/D Z-GRD) resonance probe head. The STD-NMR experiments were realized according to our established method. Basically, NMR and STD-NMR experiments were carried out with solvent suppression and a 10 ms spinlock filter after the 90◦ pulse to reduce residual signals from the protein. For selective saturation, cascades of Gaussian pulses with a length of 50 ms and 40–60 dB of attenuation were employed, with an interpulse delay of 1 ms. The on-resonance and off-resonance frequencies were set to 0 and 12,000 Hz, respectively. STD-NMR controls were performed using the ligand itself. Blank experiments were performed to guarantee the absence of direct saturation of the ligand proton signals. The relaxation delay was properly adjusted so that the experiment time length was kept constant at 6.5 s. Water suppression at 1880 Hz (4.7 ppm) was conducted. Specifically, the saturation time to obtain the STD buildup curves was recorded at 0.25, 0.5, 1, 2, 3, 4, and 5 s. A 5 μM eqBuChE solution was prepared in a D2O. Five mM stock solutions were prepared for hybrids A1 and B4. […]. The final concentrations of ligand and enzyme were […], respectively.

Artemia salina = Artemia salina lethal toxicity assay; assay type: in vivo; conditions: 24 h
Experimental: (§1) Artemia salina was used for in vivo general toxicity assessment of the compounds A1–3 and B1–5.
(§2) The ARTOXKIT M protocol was used. The percentage of dyed nauplii of Artemia salina, grown in the presence of variable concentrations of the inhibitor compounds (A1–3 and B1–5) (0.01 to 100 µM).
(§3) Saline water with 1% DMSO was used as a blank.
(§4) In parallel, a K2Cr2O7 test was performed as quality control.

[3] = target: T2, electrophorus electricus AChE (eeAChE) (Electrophorus electricus, UniProt O42275); assay: biochemical; conditions: [S] = 121 µM; 0.1 M phosphate buffer pH 8.0, 25 °C; mean ± SD
T2 construct: purified enzymes of animal origin, namely electrophorus electricus AChE (eeAChE) and equine serum BuChE (eqBuChE); purchased Sigma–Aldrich; host or cells: electric eel (animal origin)
T2 sequence (O42275 24-633): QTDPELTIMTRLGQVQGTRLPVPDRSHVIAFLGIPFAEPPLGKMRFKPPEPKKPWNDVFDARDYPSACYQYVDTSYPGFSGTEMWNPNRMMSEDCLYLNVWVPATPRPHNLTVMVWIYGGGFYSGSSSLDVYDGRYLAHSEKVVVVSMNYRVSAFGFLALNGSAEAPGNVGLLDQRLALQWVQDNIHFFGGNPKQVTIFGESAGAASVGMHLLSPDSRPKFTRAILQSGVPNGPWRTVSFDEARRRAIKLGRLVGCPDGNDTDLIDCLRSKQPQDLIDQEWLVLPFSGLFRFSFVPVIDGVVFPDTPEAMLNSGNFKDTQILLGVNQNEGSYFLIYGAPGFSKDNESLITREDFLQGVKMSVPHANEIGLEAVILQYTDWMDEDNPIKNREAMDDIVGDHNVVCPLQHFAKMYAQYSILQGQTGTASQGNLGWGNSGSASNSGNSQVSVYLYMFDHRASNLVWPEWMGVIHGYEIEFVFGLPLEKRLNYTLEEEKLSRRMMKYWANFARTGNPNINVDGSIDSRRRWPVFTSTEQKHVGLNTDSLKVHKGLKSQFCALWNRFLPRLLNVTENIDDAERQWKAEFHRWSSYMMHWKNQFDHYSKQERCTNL
Experimental: In order to evaluate the inhibitory activity against cholinesterase enzymes (AChE and BuChE), well-established in vitro models were used—purified enzymes of animal origin, namely electrophorus electricus AChE (eeAChE) and equine serum BuChE (eqBuChE). Hybrids A1–3 and B1–5 (Figure 3) were evaluated in vitro for cholinesterase inhibition using Ellman’s colorimetric method. […] The values are expressed as the mean ± standard deviation (SD).
The enzymatic activity of electrophorus electricus AChE (eeAChE) and equine serum BuChE (eqBuCHE) was assessed using the Ellman colorimetric assay, with minor modifications. […] Enzyme kinetics were monitored using UV-Vis spectroscopy using 0.875 mM 5,5′-dithiobis(2-nitrobenzoic acid) (DTNB) (Ellman’s reagent) as a chromogenic agent.
For this purpose, GraphPad Prism 8.02 software was used to plot %I vs. [I] (5 different concentrations) via a non-linear regression.

FRAP antioxidant assay = conditions: for Antioxidant capacity, FRAP method: 6–200 µM; for Trolox Equivalent Antioxidant Capacity (TEAC), FRAP method: at 200 μM, compared to Trolox
[4] = Artemia salina lethal toxicity assay; assay type: in vivo; conditions: in vivo
Experimental: as §1, §2, §3, §4

eqBuChE [5] = conditions: cited from earlier work
BuChE = conditions: cited from earlier work
AChE = conditions: cited from earlier work

Structure (SMILES) | IC50 [1] [µM] | NOEC (No Observed Effect Concentration) (Artemia salina) [µM] | IC50 [3] [µM] | Antioxidant capacity, FRAP method (FRAP antioxidant assay) | also measured
CC1=C(n2cc(-c3ccccc3)nn2)C(c2ccccc2)NC(=O)N1 (centres unmarked) [Hybrid A1, 6-Methyl-4-phenyl-5-(4-phenyl-1,2,3-triazol-1-yl)-3,4-dihydropyrimidin-2-one] | 12 ± 2 | 200 | > 100 |  | STD-NMR attenuation, H3 (eqBuChE [2]; 3 s saturation, H9 set to 100%): 87%; STD-NMR attenuation, H7 (eqBuChE [2]; 3 s saturation, H9 set to 100%): 88%
CC1=C(n2cc(-c3ccccc3)nn2)C(c2ccc(Cl)cc2)NC(=O)N1 (centres unmarked) [Hybrid A2, 4-(4-Chlorophenyl)-6-methyl-5-(4-phenyl-1,2,3-triazol-1-yl)-3,4-dihydropyrimidin-2-one] | 24 ± 1 | 200 | > 100 |  | 
CC1=C(n2cc(-c3ccccc3)nn2)C(c2ccc(OCc3ccccc3)cc2)NC(=O)N1 (centres unmarked) [Hybrid A3, 4-(4-(Benzyloxy)phenyl)-6-methyl-5-(4-phenyl-1,2,3-triazol-1-yl)-3,4-dihydropyrimidin-2-one] | > 100 | 200 | > 100 |  | 
O=C1NC(Cn2cc(-c3ccccc3)nn2)=C(n2cc(-c3ccccc3)nn2)C(c2ccccc2)N1 (centres unmarked) [Hybrid B1, 4-Phenyl-5-(4-phenyl-1,2,3-triazol-1-yl)-6-((4-phenyl-1,2,3-triazol-1-yl)methyl)-3,4-dihydropyrimidin-2-one] | 53 ± 4 | 200 | > 100 | null values | LC50 at 24 h [4]: > 200 µM
O=C1NC(Cn2cc(-c3ccc(Br)cc3)nn2)=C(n2cc(-c3ccccc3)nn2)C(c2ccccc2)N1 (centres unmarked) [Hybrid B2, 6-((4-(4-Bromophenyl)-1,2,3-triazol-1-yl)methyl)-4-phenyl-5-(4-phenyl-1,2,3-triazol-1-yl)-3,4-dihydropyrimidin-2-one] | > 100 | 1 | > 100 | null values | LOEC (Lowest Observed Effect Concentration) (Artemia salina): 100 µM; LC50 at 24 h [4]: > 200 µM
O=C1NC(Cn2cc(C3CC3)nn2)=C(n2cc(-c3ccccc3)nn2)C(c2ccccc2)N1 (centres unmarked) [Hybrid B3, 6-((4-Cyclopropyl-1H-1,2,3-triazol-1-yl)methyl)-4-phenyl-5-(4-phenyl-1,2,3-triazol-1-yl)-3,4-dihydropyrimidin-2-one] | 58 ± 3 | 200 | > 100 | some potential to reduce Fe(III) to Fe(II) | Trolox Equivalent Antioxidant Capacity (TEAC), FRAP method (FRAP antioxidant assay): 0.257
O=C1NC(Cn2cc(CN3C(=O)C(=O)c4ccccc43)nn2)=C(n2cc(-c3ccccc3)nn2)C(c2ccccc2)N1 (centres unmarked) [Hybrid B4, 1-((1-((2-Oxo-6-phenyl-5-(4-phenyl-1,2,3-triazol-1-yl)-1,2,3,6-tetrahydropyrimidin-4-yl)methyl)-1,2,3-triazol-4-yl)methyl)indoline-2,3-dione] | 1 ± 0.1 | 200 | > 100 | null values | Ki ([1]; inhibition constant for binding to the enzyme-substrate complex, read-out: Kib (converted)): 1.4 µM; Ki ([1]; inhibition constant for binding to the free enzyme, read-out: Kia (converted)): 1.1 µM; Type of inhibition of eqBuChE ([1]; methods of Dixon and Cornish-Bowden): mixed mode of inhibition; STD-NMR attenuation, H11 and H13 of the CH2 groups (eqBuChE [2]; 4 s saturation, H16 set to 100%): 33%
O=C1NC(Cn2cc(-c3ccccc3)nn2)=C(n2cc(-c3ccccc3)nn2)C(c2ccc(OCc3ccccc3)cc2)N1 (centres unmarked) [Hybrid B5, 4-(4-(Benzyloxy)phenyl)-5-(4-phenyl-1,2,3-triazol-1-yl)-6-((4-phenyl-1,2,3-triazol-1-yl)methyl)-3,4-dihydropyrimidin-2-one] | > 100 | 200 | > 100 | some potential to reduce Fe(III) to Fe(II) | Trolox Equivalent Antioxidant Capacity (TEAC), FRAP method (FRAP antioxidant assay): 0.216
[K+].[K+].[O]=[Cr](=[O])([O-])[O][Cr](=[O])(=[O])[O-] [Hybrid K2Cr2O7, K2Cr2O7, reference compound] |  |  |  |  | LC50 (Artemia salina; reference test): 23.6 µg/mL; LOEC (Lowest Observed Effect Concentration) (Artemia salina; reference test): 18 mg/L; NOEC (No Observed Effect Concentration) (Artemia salina; reference test): 10 mg/L
CC(C)[C@@H]1CC[C@@H](C)C[C@@H]1n1cc(CN2C(=O)C(=O)c3ccccc32)nn1 [III] |  |  |  |  | IC50 (eqBuChE [5]): 0.46 µM
O=c1ccc2ccc(OCCCCCn3cc(CNc4c5c(nc6ccccc46)CCCC5)nn3)cc2o1 [II] |  |  |  |  | IC50 (BuChE): 0.006 µM; IC50 (AChE): 0.095 µM
COc1cc(OC)c2c(=O)c(OCCCCn3cc(CN4C(=O)C(=O)c5ccccc54)nn3)c(-c3ccc(OC)c(OC)c3)oc2c1 [IV] |  |  |  |  | IC50 (eqBuChE [5]): 11.2 µM
CC(=O)c1ccc(OCc2cccc(C(F)(F)F)c2)cc1OCc1cn(CCc2c[nH]c3ccccc23)nn1 [I] |  |  |  |  | IC50 (BuChE): 0.00013 µM
CCOC(=O)C1=C(C[Se]C(=O)c2ccc(C)cc2)NC(=O)NC1c1ccccc1 (centres unmarked) [VI] |  |  |  |  | IC50 (AChE): 7.21 µM
COc1ccc(C2NC(=O)NC(CCc3ccc(O)cc3)=C2C(=O)CCc2ccc(O)cc2)cc1 (centres unmarked) [V] |  |  |  |  | IC50 (AChE): 1.34 µM
